Results published in patent publication US20210278408A1, “METHODS OF TREATMENT OF CANCER WITH SUBSTITUTED PYRROLE AND PYRAZOLE COMPOUNDS AND DIAGNOSIS OF CANCERS SUSCEPTIBLE TO TREATMENT WITH SUBSTITUTED PYRROLE AND PYRAZOLE COMPOUNDS” (Bantam Pharmaceutical, LLC, priority 2018, published 2021).
pEC50: −log10 of the molar value. Where a name gives a salt, the structure may show the parent alone. Read-outs that look alike come from different tables or passages of the source.

Test system: BJAB (malignant human B-cell-line)
Experiment: BJAB cell proliferation
Assay type: cell-based
Design: scale not given here
Text: In certain embodiments, the therapeutic compound is one of the compounds of the compound table below. […] In certain embodiments, the therapeutic compound is a compound having an activity as “A,” “B” or “C” in the table below. In certain embodiments, the therapeutic compound is a compound having an activity as “A” or “B” in the table below. In certain embodiments, the therapeutic compound is a compound having an activity as “A” in the table below.
In certain embodiments, the therapeutic compound is one of the compounds of the compound table below, optionally provided as a pharmaceutically-acceptable salt or N-oxide, and/or a solvate or hydrate. […] In certain embodiments, the therapeutic compound is a compound having an activity as “A,” “B” or “C” in the table below. In certain embodiments, the therapeutic compound is a compound having an activity as “A” or “B” in the table below. In certain embodiments, the therapeutic compound is a compound having an activity as “A” in the table below.

[1] = BJAB (malignant human B-cell-line) cell proliferation, EC50, read-out: BJAB
[2] = BJAB cell proliferation, read-out: EC50

Row | Structure (SMILES) | pEC50 [1] | other results
1 | Cc1nn(-c2nc(-c3ccc(Cl)c(Cl)c3)n(CC(C)C)n2)c(C(=O)O)c1-c1cccc(F)c1 [Compound B16, 1-(5-(3,4-dichlorophenyl)-1-isobutyl-1H-1,2,4-triazol-3-yl)-4-(3-fluorophenyl)-3-methyl-1H-pyrazole-5-carboxylic acid] | < 4.70 | 
2 | Cc1nn(-c2nnc(-c3ccc(C(F)(F)F)cc3)s2)c(C(=O)O)c1-c1cccc(F)c1 [Compound B30, 4-(3-fluorophenyl)-3-methyl-1-(5-(4-(trifluoromethyl)phenyl)-1,3,4-thiadiazol-2-yl)-1H-pyrazole-5-carboxylic acid] | < 4.70 | 
3 | COc1cc(Cl)cc(-c2c(C)nn(-c3nc(-c4ccc(C(F)(F)F)cc4)c(SC(C)C)s3)c2C(=O)O)c1 [Compound A222, 4-(3-chloro-5-methoxyphenyl)-1-(5-(isopropylthio)-4-(4-(trifluoromethyl)phenyl)thiazol-2-yl)-3-methyl-1H-pyrazole-5-carboxylic acid] |  | pEC50 (Homo sapiens, BJAB cell proliferation, read-out: EC50): > 6.00
4 | Cc1cc(-c2cn(-c3nc(-c4ccc(Cl)c(Cl)c4)c(SC(C)C)s3)nc2C)cc(C)n1 [Compound B9, 4-(3,4-dichlorophenyl)-2-(4-(2,6-dimethylpyridin-4-yl)-3-methyl-1H-pyrazol-1-yl)-5-(isopropylthio)thiazole] |  | BJAB (BJAB (malignant human B-cell-line) cell proliferation, EC50): A, C, L
5 | Cc1nn(-c2nc(N3CCNCC3)c(SC(C)C)s2)c(C(=O)O)c1-c1cccc(F)c1 [Compound B35, 4-(3-fluorophenyl)-1-(5-(isopropylthio)-4-(piperazin-1-yl)thiazol-2-yl)-3-methyl-1H-pyrazole-5-carboxylic acid hydrochloric acid salt] | < 4.70 | 
6 | CC(C)Sc1sc(-n2nc(O)c(-c3cccc(F)c3)c2C(=O)O)nc1-c1ccc(C(F)(F)F)cc1 [Compound B15, 4-(3-fluorophenyl)-3-hydroxy-1-(5-(isopropylthio)-4-(4-(trifluoromethyl)phenyl)thiazol-2-yl)-1H-pyrazole-5-carboxylic acid] | < 4.70 | 
7 | COCCNC(=O)c1ccc(-c2sc(-n3nc(C)c(-c4cccc(F)c4)c3C(=O)O)nc2-c2ccc(C(F)(F)F)cc2)cc1 [Compound B49, 4-(3-fluorophenyl)-1-(5-(4-((2-methoxyethyl)carbamoyl)phenyl)-4-(4-(trifluoromethyl)phenyl)thiazol-2-yl)-3-methyl-1H-pyrazole-5-carboxylic acid] | < 4.70 | 
8 | CC(C)=Cc1sc(-n2nc(C)c(-c3cccc(F)c3)c2C(=O)O)nc1-c1ccc(C(F)(F)F)cc1 [Compound B36, 4-(3-fluorophenyl)-3-methyl-1-(5-(2-methylprop-1-en-1-yl)-4-(4-(trifluoromethyl)phenyl)thiazol-2-yl)-1H-pyrazole-5-carboxylic acid] | > 6.00 | 
9 | Cc1nn(-c2nc(-c3ccc(C(F)(F)F)cc3)c(-c3ccc(C(F)(F)F)cc3)s2)c(C(=O)O)c1-c1cccc(F)c1 [Compound B38, 1-(4,5-bis(4-(trifluoromethyl)phenyl)thiazol-2-yl)-4-(3-fluorophenyl)-3-methyl-1H-pyrazole-5-carboxylic acid] | > 6.00 | 
10 | COC(=O)c1c(-c2cccc(F)c2)c(C)nn1-c1nc(C2=CCC(C(F)(F)F)CC2)c(SC(C)C)s1 (stereo not drawn) [Compound B20, methyl 4-(3-fluorophenyl)-1-(5-(isopropylthio)-4-(4-(trifluoromethyl)cyclohex-1-en-1-yl)thiazol-2-yl)-3-methyl-1H-pyrazole-5-carboxylate] | > 6.00 | 
11 | Cc1nn(-c2nc(-c3ccc(C(F)(F)F)cc3)c(CC(C)C)s2)c(C(=O)O)c1-c1cccc(F)c1 [Compound B22, 4-(3-fluorophenyl)-1-(5-isobutyl-4-(4-(trifluoromethyl)phenyl)thiazol-2-yl)-3-methyl-1H-pyrazole-5-carboxylic acid] | > 6.00 | 
12 | COCc1sc(-n2nc(C)c(-c3cccc(F)c3)c2C(=O)O)nc1-c1ccc(C(F)(F)F)cc1 [Compound B57, 4-(3-fluorophenyl)-1-(5-(methoxymethyl)-4-(4-(trifluoromethyl)phenyl)thiazol-2-yl)-3-methyl-1H-pyrazole-5-carboxylic acid] | 5.00 to 5.30 | 
13 | Cc1nn(-c2nc(N3CCN(C(=O)OC(C)(C)C)CC3)c(SC(C)C)s2)c(C(=O)O)c1-c1cccc(F)c1 [Compound B33, 1-(4-(4-(tert-butoxycarbonyl)piperazin-1-yl)-5-(isopropylthio)thiazol-2-yl)-4-(3-fluorophenyl)-3-methyl-1H-pyrazole-5-carboxylic acid] | < 4.70 | 
14 | Cc1nn(-c2nc(-c3ccc(Cl)c(Cl)c3)c(SC(C)C)s2)c(C(=O)O)c1Cc1ccccc1NS(=O)(=O)N(C)C [Compound A122, 1-(4-(3,4-dichlorophenyl)-5-(isopropylthio)thiazol-2-yl)-4-(2-(N,N-dimethylsulfamoylamino)benzyl)-3-methyl-1H-pyrazole-5-carboxylic acid] |  | pEC50 [2]: 4.60 to 5.00
15 | Cc1nn(-c2nc(N3CCC(C#N)CC3)c(SC(C)C)s2)c(C(=O)O)c1-c1cccc(F)c1 [Compound B24, 1-(4-(4-cyanopiperidin-1-yl)-5-(isopropylthio)thiazol-2-yl)-4-(3-fluorophenyl)-3-methyl-1H-pyrazole-5-carboxylic acid] | 4.60 to 5.00 | 
16 | Cc1nn(-c2nc(C3=CCC(C)(C)CC3)c(SC(C)C)s2)c(C(=O)O)c1-c1cccc(F)c1 [Compound B6, 1-(4-(4,4-dimethylcyclohex-1-en-1-yl)-5-(isopropylthio)thiazol-2-yl)-4-(3-fluorophenyl)-3-methyl-1H-pyrazole-5-carboxylic acid] | > 6.00 | 
17 | COCCN(C)C(=O)c1ccc(-c2sc(-n3nc(C)c(-c4cccc(F)c4)c3C(=O)O)nc2-c2ccc(C(F)(F)F)cc2)cc1 [Compound B50, 4-(3-fluorophenyl)-1-(5-(4-((2-methoxyethyl)(methyl)carbamoyl)phenyl)-4-(4-(trifluoromethyl)phenyl)thiazol-2-yl)-3-methyl-1H-pyrazole-5-carboxylic acid] | < 4.70 | 
18 | COCCN(C)c1sc(-n2nc(C)c(-c3cccc(F)c3)c2C(=O)O)nc1-c1ccc(C(F)(F)F)cc1 [Compound B31, 4-(3-fluorophenyl)-1-(5-((2-methoxyethyl)(methyl)amino)-4-(4-(trifluoromethyl)phenyl)thiazol-2-yl)-3-methyl-1H-pyrazole-5-carboxylic acid] | 5.30 to 6.00 | 
19 | Cc1nn(-c2nc(N3CCN(C(C)(C)C)C(=O)C3)c(SC(C)C)s2)c(C(=O)O)c1-c1cccc(F)c1 [Compound B46, 1-(4-(4-(tert-butyl)-3-oxopiperazin-1-yl)-5-(isopropylthio)thiazol-2-yl)-4-(3-fluorophenyl)-3-methyl-1H-pyrazole-5-carboxylic acid] | < 4.70 | 
20 | Cc1nn(-c2nc(-c3ccc(C#N)cc3)c(SC(C)C)s2)c(C(=O)O)c1-c1cccc(F)c1 [Compound A213, 1-(4-(4-cyanophenyl)-5-(isopropylthio)thiazol-2-yl)-4-(3-fluorophenyl)-3-methyl-1H-pyrazole-5-carboxylic acid] |  | EC50 (BJAB cell proliferation): C-
21 | COCCOCC(=O)Nc1ccc(-c2sc(-n3nc(C)c(-c4cccc(F)c4)c3C(=O)O)nc2-c2ccc(C(F)(F)F)cc2)cc1 [Compound B52, 4-(3-fluorophenyl)-1-(5-(4-(2-(2-methoxyethoxy)acetamido)phenyl)-4-(4-(trifluoromethyl)phenyl)thiazol-2-yl)-3-methyl-1H-pyrazole-5-carboxylic acid] | 4.60 to 5.00 | 
22 | Cc1nn(-c2nc(-c3ccc(C(F)(F)F)cc3)c(C(C)O)s2)c(C(=O)O)c1-c1cccc(F)c1 (stereo not drawn) [Compound B63, 4-(3-fluorophenyl)-1-(5-(1-hydroxyethyl)-4-(4-(trifluoromethyl)phenyl)thiazol-2-yl)-3-methyl-1H-pyrazole-5-carboxylic acid] | < 4.70 | 
23 | COCCOCC(=O)N(C)c1ccc(-c2sc(-n3nc(C)c(-c4cccc(F)c4)c3C(=O)O)nc2-c2ccc(C(F)(F)F)cc2)cc1 [Compound B56, 4-(3-fluorophenyl)-1-(5-(4-(2-(2-methoxyethoxy)-N-methylacetamido)phenyl)-4-(4-(trifluoromethyl)phenyl)thiazol-2-yl)-3-methyl-1H-pyrazole-5-carboxylic acid] | < 4.70 | 
24 | Cc1nn(-c2nc(-c3ccc(C(F)(F)F)cc3)c(-c3cccc(F)c3)s2)c(C(=O)O)c1-c1cccc(F)c1 [Compound B59, 4-(3-fluorophenyl)-1-(5-(3-fluorophenyl)-4-(4-(trifluoromethyl)phenyl)thiazol-2-yl)-3-methyl-1H-pyrazole-5-carboxylic acid] | > 6.00 | 
25 | Cc1nn(-c2nc(N3CCCCC3)c(SC(C)C)s2)c(C(=O)O)c1-c1cccc(F)c1 [Compound B11, 4-(3-fluorophenyl)-1-(5-(isopropylthio)-4-(piperidin-1-yl)thiazol-2-yl)-3-methyl-1H-pyrazole-5-carboxylic acid] | 4.60 to 5.00 | 
26 | Cc1nn(-c2nc(-c3ccc(Cl)c(Cl)c3)c(SC(C)C)s2)c(CO)c1-c1ccccc1 [Compound A88, (1-(4-(3,4-dichlorophenyl)-5-(isopropylthio)thiazol-2-yl)-3-methyl-4-phenyl-1H-pyrazol-5-yl)MeOH] |  | pEC50 [2]: < 4.60
27 | COCCOc1ccc(-c2sc(-n3nc(C)c(-c4cccc(F)c4)c3C(=O)O)nc2-c2ccc(C(F)(F)F)cc2)cc1 [Compound B65, 4-(3-fluorophenyl)-1-(5-(4-(2-methoxyethoxy)phenyl)-4-(4-(trifluoromethyl)phenyl)thiazol-2-yl)-3-methyl-1H-pyrazole-5-carboxylic acid] | 5.30 to 6.00 | 
